Laboratory results as given in patent US7863446B2, “Heterocycles” (Orchid Research Laboratories Limited, priority 2006, dated 2011).

How the values were obtained:
COX-2 = target: T1, COX-2 (Homo sapiens, UniProt P35354); assay: Human whole blood assay (PGE-2 inhibition, COX-2); type: cell-based; settings: LPS stimulated human whole blood, NA = No activity, read-out: % PGE-2 Inhibition in hWBA
T1 construct: Fresh blood was collected in tubes containing sodium heparin by vein puncture from healthy male volunteers; endogenous in cells; host or cells: human whole blood from healthy male volunteers, stimulated with LPS
T1 sequence (P35354 18-604): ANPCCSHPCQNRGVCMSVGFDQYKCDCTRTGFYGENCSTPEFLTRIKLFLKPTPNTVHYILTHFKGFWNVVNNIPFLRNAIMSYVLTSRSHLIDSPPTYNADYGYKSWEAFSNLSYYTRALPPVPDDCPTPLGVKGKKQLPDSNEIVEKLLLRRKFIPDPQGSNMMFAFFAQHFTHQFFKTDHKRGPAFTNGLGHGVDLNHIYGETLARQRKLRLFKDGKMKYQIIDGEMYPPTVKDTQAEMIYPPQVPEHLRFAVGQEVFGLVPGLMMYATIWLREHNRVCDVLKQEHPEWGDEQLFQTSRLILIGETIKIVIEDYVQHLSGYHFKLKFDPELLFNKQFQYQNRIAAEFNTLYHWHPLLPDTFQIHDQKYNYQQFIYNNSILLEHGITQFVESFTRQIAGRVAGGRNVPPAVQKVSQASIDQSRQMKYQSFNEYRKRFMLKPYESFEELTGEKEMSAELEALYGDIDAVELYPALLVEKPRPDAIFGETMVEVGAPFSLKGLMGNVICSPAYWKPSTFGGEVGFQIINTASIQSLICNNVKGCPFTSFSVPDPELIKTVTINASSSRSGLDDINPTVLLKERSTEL
Description: In Vitro Evaluation of Cyclooxygenase-2 (Cox-2) Inhibition Activity
The COX-2 inhibition activities of the compounds illustrated in the examples were determined by the following method.
Human whole blood provides a protein and cell rich milieu appropriate for the study of the biochemical efficacy of anti-inflammatory compounds such as selective COX-2 inhibitors. […] This correlates with the observation that COX-2 inhibitors have no effect on prostaglandin E2 (PGE2) production in normal blood. These inhibitors were active only after incubation of human blood with lipopolysaccharide (LPS), which induces COX-2 production in the blood.
Fresh blood was collected in tubes containing sodium heparin by vein puncture from healthy male volunteers. The subjects should have no apparent inflammatory conditions and should have not taken NSAIDs for at least 7 days prior to blood collection. Blood was preincubated with aspirin in vitro (12 μg/ml, at time zero) to inactivate COX-1 for 6 hours. Then test compounds (at various concentrations) or vehicle were added to blood, the blood was stimulated with LPS B:4 (10 μg/ml) and incubated for another 18 hours at 37° C. water bath. After which the blood was centrifuged, plasma was separated and stored at −80° C. (J. Pharmacol. Exp. Ther, 271, 1705, 1994; Proc. Natl. Acad. Sci. USA, 96, 7563, 1999). The plasma was assayed for PGE2 using Cayman ELISA kit as per the procedure outlined by the manufacturer (Cayman Chemicals, Ann Arbor, USA).

Animals (male wistar) = assay: Ulcerogenic potential; type: in vivo; settings: oral, 4 hours after administration
Description: In order to evaluate the compound's role on the ulcer formation, the animals were sacrificed and the stomach was taken out and flushed with 1% formalin. Animals (male wistar. 200 g) were fasted for 18 hours with free access to water and the test compounds were suspended in 0.5% Tween 80 and 0.25% CMC (carboxymethylcellulose) solution to make a uniform suspension. After 4 hours of oral administration of test compounds, all the animals were sacrificed by cervical dislocation. The stomach was dissected carefully and filled up with a sterile saline solution and embedded in 6% formalin solution. […] The test compound treated groups were compared with the vehicle treated groups. […]

TNF-α = assay: In vitro measurement of TNF-α in human PBMC (LPS stimulated); type: cell-based
Summary of the method: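 Healthy-volunteer PBMC (0.5 million/well) in RPMI were pre-incubated with compound 15 min at 37 °C. They were then stimulated with E. coli B4 LPS 1 μg/ml for 18 h at 37 °C, 5% CO2. TNF-α in culture medium was measured by ELISA.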

inhibition at 0.25 µM (COX-2; 0.25 μM): 6.1%
inhibition at 1 µM (COX-2; 1 μM): 22.9%
inhibition at 10 µM (COX-2; 10 μM): 35.6%
Compound: CNS(=O)(=O)c1ccc(-c2c(Cl)nc(C(F)(F)F)nc2-c2ccc(S(C)(=O)=O)cc2)cc1 [Example 4, 4-{4-Chloro-6-[4-(methylsulfonyl)phenyl]-2-(trifluoromethyl)pyrimidin-5-yl}-N-methylbenzenesulfonamide]
Ulcer incidence at 5 mg/kg (Animals (male wistar)): Nil
inhibition at 1 µM (TNF-α; 1 μM, NA = No activity, read-out: TNF-α Inhibition (%) at Conc. (1 μM)): 30%
inhibition at 10 µM (TNF-α; 10 μM, read-out: TNF-α Inhibition (%) at Conc. (10 μM)): 107%
